Where two headings read alike, the source gives them in different places.
Tests used:
[1] = Single dose crossover pharmacokinetic study in dogs; format: in vivo; conditions: for AUC / Cmax: male, dog, plasma, po, single oral (gavage) dose, d3-etoricoxib 2.00 mg/kg, etoricoxib 1.98 mg/kg
Method: A single dose crossover study was conducted to compare the pharmacokinetics of d3-etoricoxib and non-isotopically enriched etoricoxib in dogs. Four male dogs were dosed, and animals received each of the following treatments sequentially, with a minimum of four days washout between doses.
Blood samples were taken at 0.083, 0.25, 0.5, 1, 2, 4, 6, 8, 12, and 24 hours post-dose. Plasma was analyzed for d3-etoricoxib or non-isotopically enriched etoricoxib concentration.

human liver microsomes = assay: Metabolic stability with human liver microsomes (formation of M1 / d2-M1 metabolite); format: in vitro ADME; conditions: human liver microsomes 0.5 mg/mL, 1 μM, over 60 minutes, NADPH and UDPGA
Method: The metabolic stability of non-isotopically enriched etoricoxib and d3-etoricoxib, with human liver microsomes was evaluated.
Etoricoxib is extensively metabolized in humans with <1% of a dose recovered in urine as the parent drug. The primary pathway for metabolism of etoricoxib in humans is through the production of the methylhydroxy metabolite of etoricoxib (“M1”). Metabolism of etoricoxib involves conversion primarily to the “M1” derivative, mainly (ca. 60%) by CYP3A4, with less contribution by CYPs 1A2, 2C9, 2C19 and 2D6 (ca. 40% collectively). See, e.g., Arcoxia® (etoricoxib) Australian Product Information, available at http://apps.medicines.org.au/files/mkparcox.pdf (last visited Apr. 9, 2021), the contents of which are herein incorporated by reference in their entirety. Production of the “M1” metabolite and d3-etoricoxib (“d2-M1”) was evaluated in this experiment throughout the incubation period.

CYP3A4 [2] = biological target: T1, CYP3A4 (Homo sapiens, UniProt P08684); assay: Metabolic stability in CYP3A4 incubations (formation of methylhydroxy metabolites); format: in vitro ADME; set-up: purchased Corning 456202; conditions: for Formation of methylhydroxy metabolite relative to M1 formed from etoricoxib: human recombinant CYP3A4, over time (to 40 min), 1 μM; for Susceptibility to metabolism by CYP3A4 compared with non-isotopically enriched etoricoxib: human recombinant CYP3A4 incubations
Method: The metabolic stability of non-isotopically enriched etoricoxib, d3-etoricoxib, and an alternate deuterated form of etoricoxib, d4-etoricoxib (5-chloro-6′-methyl-3-(4-(methylsulfonyl)phenyl-2,3,5,6-d4)-2,3′-bipyridine, CAS No.: 1131345-14-6), in CYP3A4 incubations was evaluated. d4-Etoricoxib has the chemical structure:
Human recombinant CYP3A4 (Corning, item #456202, lot #9322001) was chosen for the assay conditions as CYP3A4 is the principle enzyme responsible for the metabolism of etoricoxib in humans. Formation of the methylhydroxy metabolites formed from etoricoxib, d3-etoricoxib, and d4-etoricoxib was monitored over time (Table 5, FIGS. 13 and 14).

[3] = humans; cited from earlier work
CYP3A4 [4] = biological target: T1, CYP3A4; conditions: humans; cited from earlier work
[5] = tested on: CYPs 1A2, 2C9, 2C19 and 2D6; conditions: humans; cited from earlier work
[6] = equivalent oral doses, four male dogs
[7] = four male dogs, oral (gavage), 2.00 vs 1.98 mg/kg
[8] = Animal 1001, male dog, read-out: AUC0.5-24 h
[9] = Animal 1001, male dog, read-out: Cmax
[10] = Animal 1002, male dog, read-out: AUC0.5-24 h
[11] = Animal 1002, male dog, read-out: Cmax
[12] = Animal 1003, male dog, read-out: AUC0.5-24 h
[13] = Animal 1003, male dog, read-out: Cmax
[14] = Animal 1004, male dog, read-out: AUC0.5-24 h
[15] = Animal 1004, male dog, read-out: Cmax
[16] = Mean (SD) of four male dogs, read-out: AUC0.5-24 h, Mean (SD)
[17] = Mean (SD) of four male dogs, read-out: Cmax, Mean (SD)

T1 sequence (P08684 whole entry): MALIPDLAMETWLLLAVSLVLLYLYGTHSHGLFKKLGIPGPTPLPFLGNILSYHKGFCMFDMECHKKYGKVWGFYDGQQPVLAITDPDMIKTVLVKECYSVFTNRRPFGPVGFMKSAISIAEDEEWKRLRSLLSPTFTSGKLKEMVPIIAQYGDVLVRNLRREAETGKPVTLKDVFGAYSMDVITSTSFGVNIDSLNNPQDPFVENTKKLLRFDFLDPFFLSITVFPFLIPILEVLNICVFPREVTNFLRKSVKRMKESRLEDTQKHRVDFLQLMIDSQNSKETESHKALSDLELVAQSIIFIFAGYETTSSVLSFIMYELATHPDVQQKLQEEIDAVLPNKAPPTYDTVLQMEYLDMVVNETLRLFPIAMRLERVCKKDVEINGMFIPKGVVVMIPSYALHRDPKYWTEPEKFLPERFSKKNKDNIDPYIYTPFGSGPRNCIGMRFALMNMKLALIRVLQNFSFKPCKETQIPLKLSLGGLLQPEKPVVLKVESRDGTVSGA

| AUC [1, 8] | Cmax [1, 9] | AUC [1, 10] | Cmax [1, 11] | AUC [1, 12] | Cmax [1, 13] | AUC [1, 14] | Cmax [1, 15] | AUC [1, 16] | Cmax [1, 17] | Formation of methylhydroxy metabolite relative to M1 formed from etoricoxib (CYP3A4 [2]) | Susceptibility to metabolism by CYP3A4 compared with non-isotopically enriched etoricoxib (CYP3A4 [2]) | Compound | also measured |
| --- | --- | --- | --- | --- | --- | --- | --- | --- | --- | --- | --- | --- | --- |
| 516 ng·h/mL | 628 ng/mL | 1020 ng·h/mL | 791 ng/mL | 1260 ng·h/mL | 593 ng/mL | 658 ng·h/mL | 317 ng/mL | 865 ng·h/mL | 604 ng/mL | about six-fold lower | substantially different | [2H]C([2H])([2H])c1ccc(-c2ncc(Cl)cc2-c2ccc(S(C)(=O)=O)cc2)cn1 [d3-etoricoxib, 5-chloro-6′-(methyl-d3)-3-(4-(methylsulfonyl)phenyl)-2,3′-bipyridine] | Cmax relative to non-isotopically enriched etoricoxib [1, 6]: higher Cmax; Metabolism in dogs relative to non-isotopically enriched etoricoxib [1, 6]: substantially resistant to metabolism; Total exposure (AUC) relative to non-isotopically enriched etoricoxib [1, 6]: higher total exposure; AUC0.5-24 h, Average % delta d3-etoricoxib vs etoricoxib [1, 7]: +48.6%; Cmax, Average % delta d3-etoricoxib vs etoricoxib [1, 7]: +54.9%; Amount of d2-M1 metabolite formed relative to M1 formed from etoricoxib (human liver microsomes): approximately three-fold less |
|  |  |  |  |  |  |  |  |  |  | similar | almost identical | [2H]c1c([2H])c(S(C)(=O)=O)c([2H])c([2H])c1-c1cc(Cl)cnc1-c1ccc(C)nc1 [d4-etoricoxib, 5-chloro-6′-methyl-3-(4-(methylsulfonyl)phenyl-2,3,5,6-d4)-2,3′-bipyridine, reference compound] |  |
| 342 ng·h/mL | 259 ng/mL | 606 ng·h/mL | 426 ng/mL | 1130 ng·h/mL | 670 ng/mL | 336 ng·h/mL | 206 ng/mL | 582 ng·h/mL | 390 ng/mL |  |  | Cc1ccc(-c2ncc(Cl)cc2-c2ccc(S(C)(=O)=O)cc2)cn1 [etoricoxib] | Dose recovered in urine as the parent drug [3]: < 1%; Share of conversion to the M1 derivative by CYP3A4 (CYP3A4 [4]): ca. 60%; Share of conversion to the M1 derivative by CYPs 1A2, 2C9, 2C19 and 2D6 collectively [5]: ca. 40% |

— US11858909B2, “Deuterated etoricoxib, methods of manufacture, and use thereof” (Tremeau Pharmaceuticals, Inc., priority 2021, dated 2024)
